{
  "source": "patent US20240200091A1",
  "about": "“USE OF PROTOPORPHYRINOGEN OXIDASE” (BEIJING DABEINONG BIOTECHNOLOGY CO., LTD., priority 2021, published 2024)",
  "format_in_all_cases": "in vivo",
  "key": {"[1]": {"tested_on": "Arabidopsis thaliana T1 plants", "test": "oxyfluorfen tolerance of transgenic Arabidopsis thaliana T1 plants (spray, grade of pesticide damage)", "conditions": "for The grade of pesticide damage/plant: grade 0 / The grade of pesticide damage/plant: grade 1 / The grade of pesticide damage/plant: grade 2 / The grade of pesticide damage/plant: grade 3: 7 DAT, number of plants of 24 per genotype, grades", "from_the_text": "(§1) The transformed Arabidopsis thaliana T1 plants were initially selected using glufosinate herbicide. The Arabidopsis thaliana T1 plants (PPO1A) into which the PPO1A nucleotide sequence was introduced, the Arabidopsis thaliana T1 plants (PPO2A) into which the PPO2A nucleotide sequence was introduced, the Arabidopsis thaliana T1 plants (PPO3A) into which the PPO3A nucleotide sequence was introduced, the Arabidopsis thaliana T1 plants (PPO4A) into which the PPO4A nucleotide sequence was introduced, the Arabidopsis thaliana T1 plants (PPO5A) into which the PPO5A nucleotide sequence was introduced, the Arabidopsis thaliana T1 plants (PPO6A) into which the PPO6A nucleotide sequence was introduced, the Arabidopsis thaliana T1 plants (PPO7A) into which the PPO7A nucleotide sequence was introduced, the Arabidopsis thaliana T1 plants (PPO8A) into which the PPO8A nucleotide sequence was introduced, the Arabidopsis thaliana T1 plants (PPO9A) into which the PPO9A nucleotide sequence was introduced, the Arabidopsis thaliana T1 plants (PPO10A) into which the […] nucleotide sequence was introduced, the Arabidopsis thaliana T1 plants (PPO11A) into which the PPO11A nucleotide sequence was introduced, the Arabidopsis thaliana T1 plants (PPO12A) into which the PPO12A nucleotide sequence was introduced, the Arabidopsis thaliana T1 plants (PPO13A) into which the PPO13A nucleotide sequence was introduced, the Arabidopsis thaliana T1 plants (PPO14A) into which the PPO14A nucleotide sequence was introduced, the Arabidopsis thaliana T1 plants (PPO-ATA) into which the PPO-ATA nucleotide sequence was introduced, the Arabidopsis thaliana T1 plants (PPO-APA) into which the PPO-APA nucleotide sequence was introduced, the Arabidopsis thaliana T1 plants (control vector) into which the control vector was introduced, and the wild-type Arabidopsis thaliana plants (CK) (with 24 plants being included in each genotype) (18 days after sowing) were sprayed with oxyfluorfen at three concentrations (180 g ai/ha (one-fold field concentration, 1×), 720 g ai/ha (four-fold field concentration, 4×), and 0 g ai/ha (water, 0×)), saflufenacil at three concentrations (25 g ai/ha (one-fold field concentration, 1×), 100 g ai/ha (four-fold field concentration, 4×), and 0 g ai/ha (water, 0×)), flumioxazin at three concentrations (60 g ai/ha (one-fold field concentration, 1×), 240 g ai/ha (four-fold field concentration, 4×), and 0 g ai/ha (water, 0×), and sulfentrazone at three concentrations (450 g ai/ha (one-fold field concentration, 1×), 900 g ai/ha (two-fold field concentration, 2×), and 0 g ai/ha (water, 0×) to determine the tolerance of Arabidopsis thaliana to the herbicides. After 7 days of spraying (7 DAT), the damage level of each plant caused by the herbicide was evaluated according to the average of the damage levels (%) of plants (the average of the damage levels (%) of plants=the injured leaf area/the total leaf area×[…]), i.e., the grade of pesticide damage: grade 0 means that the growth status of plants is essentially consistent with those sprayed with the blank solvent (water); grade 1 means that the average of the damage levels of plants is less than 10%; grade 2 means that the average of the damage levels of plants is greater than […]; and grade 3 means that the average of the damage levels of plants is 100%. The plants having a growth status falling within grades 0 and 1 are classified as highly resistant plants; those having a growth status falling within grade 2 are classified as poorly resistant plants; and those having a growth status falling within grade 3 are classified as non-resistant plants."}, "[2]": {"tested_on": "Arabidopsis thaliana T1 plants", "test": "saflufenacil tolerance of transgenic Arabidopsis thaliana T1 plants (spray, grade of pesticide damage)", "conditions": "for The grade of pesticide damage/plant: grade 0 / The grade of pesticide damage/plant: grade 1 / The grade of pesticide damage/plant: grade 2 / The grade of pesticide damage/plant: grade 3: 7 DAT, number of plants of 24 per genotype, grades", "from_the_text": "as §1"}, "[3]": {"tested_on": "Arabidopsis thaliana T1 plants", "test": "flumioxazin tolerance of transgenic Arabidopsis thaliana T1 plants (spray, grade of pesticide damage)", "conditions": "for The grade of pesticide damage/plant: grade 0 / The grade of pesticide damage/plant: grade 1 / The grade of pesticide damage/plant: grade 2 / The grade of pesticide damage/plant: grade 3: 7 DAT, number of plants of 24 per genotype, grades", "from_the_text": "as §1"}, "[4]": {"tested_on": "Arabidopsis thaliana T1 plants", "test": "sulfentrazone tolerance of transgenic Arabidopsis thaliana T1 plants (spray, grade of pesticide damage)", "conditions": "for The grade of pesticide: grade 0 / The grade of pesticide: grade 1 / The grade of pesticide: grade 2 / The grade of pesticide: grade 3: 7 DAT, number of plants of 24 per genotype, grades", "from_the_text": "as §1"}},
  "data": [
    {"compound": "PPO-ATA: nucleotide sequence encoding Arabidopsis protoporphyrinogen oxidase PPO-AT (SEQ ID NO:46), Arabidopsis thaliana/soybean common codon usage bias [reference compound]", "values": [
      {"measurement": "The grade of pesticide damage/plant: grade 0", "setting": "[1]; oxyfluorfen 180 g ai/ha (1×)", "result": 0, "unit": "plant"},
      {"measurement": "The grade of pesticide damage/plant: grade 1", "setting": "[1]; oxyfluorfen 180 g ai/ha (1×)", "result": 0, "unit": "plant"},
      {"measurement": "The grade of pesticide damage/plant: grade 2", "setting": "[1]; oxyfluorfen 180 g ai/ha (1×)", "result": 8, "unit": "plant"},
      {"measurement": "The grade of pesticide damage/plant: grade 3", "setting": "[1]; oxyfluorfen 180 g ai/ha (1×)", "result": 16, "unit": "plant"},
      {"measurement": "The grade of pesticide damage/plant: grade 0", "setting": "[1]; oxyfluorfen 720 g ai/ha (4×)", "result": 0, "unit": "plant"},
      {"measurement": "The grade of pesticide damage/plant: grade 1", "setting": "[1]; oxyfluorfen 720 g ai/ha (4×)", "result": 0, "unit": "plant"},
      {"measurement": "The grade of pesticide damage/plant: grade 2", "setting": "[1]; oxyfluorfen 720 g ai/ha (4×)", "result": 0, "unit": "plant"},
      {"measurement": "The grade of pesticide damage/plant: grade 3", "setting": "[1]; oxyfluorfen 720 g ai/ha (4×)", "result": 24, "unit": "plant"},
      {"measurement": "tolerance to oxyfluorfen", "setting": "[1]; oxyfluorfen at different concentrations (180 and 720 g ai/ha), compared with the control vector and CK", "result": "basically no tolerance"},
      {"measurement": "The grade of pesticide damage/plant: grade 0", "setting": "[2]; saflufenacil 25 g ai/ha (1×)", "result": 0, "unit": "plant"},
      {"measurement": "The grade of pesticide damage/plant: grade 1", "setting": "[2]; saflufenacil 25 g ai/ha (1×)", "result": 0, "unit": "plant"},
      {"measurement": "The grade of pesticide damage/plant: grade 2", "setting": "[2]; saflufenacil 25 g ai/ha (1×)", "result": 0, "unit": "plant"},
      {"measurement": "The grade of pesticide damage/plant: grade 3", "setting": "[2]; saflufenacil 25 g ai/ha (1×)", "result": 24, "unit": "plant"},
      {"measurement": "The grade of pesticide damage/plant: grade 0", "setting": "[2]; saflufenacil 100 g ai/ha (4×)", "result": 0, "unit": "plant"},
      {"measurement": "The grade of pesticide damage/plant: grade 1", "setting": "[2]; saflufenacil 100 g ai/ha (4×)", "result": 0, "unit": "plant"},
      {"measurement": "The grade of pesticide damage/plant: grade 2", "setting": "[2]; saflufenacil 100 g ai/ha (4×)", "result": 0, "unit": "plant"},
      {"measurement": "The grade of pesticide damage/plant: grade 3", "setting": "[2]; saflufenacil 100 g ai/ha (4×)", "result": 24, "unit": "plant"},
      {"measurement": "tolerance to saflufenacil", "setting": "[2]; saflufenacil at four-fold field concentration (100 g ai/ha)", "result": "no tolerance"},
      {"measurement": "tolerance to saflufenacil", "setting": "[2]; saflufenacil at one-fold field concentration (25 g ai/ha)", "result": "no tolerance"},
      {"measurement": "The grade of pesticide damage/plant: grade 0", "setting": "[3]; flumioxazin 60 g ai/ha (1×)", "result": 0, "unit": "plant"},
      {"measurement": "The grade of pesticide damage/plant: grade 1", "setting": "[3]; flumioxazin 60 g ai/ha (1×)", "result": 0, "unit": "plant"},
      {"measurement": "The grade of pesticide damage/plant: grade 2", "setting": "[3]; flumioxazin 60 g ai/ha (1×)", "result": 2, "unit": "plant"},
      {"measurement": "The grade of pesticide damage/plant: grade 3", "setting": "[3]; flumioxazin 60 g ai/ha (1×)", "result": 22, "unit": "plant"},
      {"measurement": "The grade of pesticide damage/plant: grade 0", "setting": "[3]; flumioxazin 240 g ai/ha (4×)", "result": 0, "unit": "plant"},
      {"measurement": "The grade of pesticide damage/plant: grade 1", "setting": "[3]; flumioxazin 240 g ai/ha (4×)", "result": 0, "unit": "plant"},
      {"measurement": "The grade of pesticide damage/plant: grade 2", "setting": "[3]; flumioxazin 240 g ai/ha (4×)", "result": 0, "unit": "plant"},
      {"measurement": "The grade of pesticide damage/plant: grade 3", "setting": "[3]; flumioxazin 240 g ai/ha (4×)", "result": 24, "unit": "plant"},
      {"measurement": "tolerance to flumioxazin", "setting": "[3]; flumioxazin at different concentrations (60 and 240 g ai/ha)", "result": "basically no tolerance"},
      {"measurement": "The grade of pesticide: grade 0", "setting": "[4]; sulfentrazone 450 g ai/ha (1×)", "result": 0},
      {"measurement": "The grade of pesticide: grade 1", "setting": "[4]; sulfentrazone 450 g ai/ha (1×)", "result": 0},
      {"measurement": "The grade of pesticide: grade 2", "setting": "[4]; sulfentrazone 450 g ai/ha (1×)", "result": 0},
      {"measurement": "The grade of pesticide: grade 3", "setting": "[4]; sulfentrazone 450 g ai/ha (1×)", "result": 24},
      {"measurement": "The grade of pesticide: grade 0", "setting": "[4]; sulfentrazone 900 g ai/ha (2×)", "result": 0},
      {"measurement": "The grade of pesticide: grade 1", "setting": "[4]; sulfentrazone 900 g ai/ha (2×)", "result": 0},
      {"measurement": "The grade of pesticide: grade 2", "setting": "[4]; sulfentrazone 900 g ai/ha (2×)", "result": 0},
      {"measurement": "The grade of pesticide: grade 3", "setting": "[4]; sulfentrazone 900 g ai/ha (2×)", "result": 24},
      {"measurement": "tolerance to sulfentrazone", "setting": "[4]; sulfentrazone at different concentrations (450 and 900 g ai/ha)", "result": "no tolerance"}
    ]},
    {"compound": "Cc1nn(-c2cc(NS(C)(=O)=O)c(Cl)cc2Cl)c(=O)n1C(F)F", "note": "[sulfentrazone, N-(2,4-dichloro-5-(4-difluoromethyl-4,5-dihydro-3-methyl-5-oxo-1H-1,2,4-triazole-1-yl)phenyl)methanesulfonamide, reference compound]", "values": [
      {"measurement": "effective dose distinguishing sensitive plants from plants having an average level of resistance", "setting": "[4]; for Arabidopsis thaliana, sulfentrazone herbicide", "result": 450, "unit": "g ai/ha"}
    ]},
    {"compound": "CCOc1cc(Oc2ccc(C(F)(F)F)cc2Cl)ccc1[N+](=O)[O-]", "note": "[oxyfluorfen, 2-chloro-1-(3-ethoxy-4-nitrophenoxy)-4-trifluoromethylbenzene, reference compound]", "values": [
      {"measurement": "effective dose distinguishing sensitive plants from plants having an average level of resistance", "setting": "[1]; for Arabidopsis thaliana, oxyfluorfen herbicide", "result": 180, "unit": "g ai/ha"}
    ]},
    {"compound": "CC(C)N(C)S(=O)(=O)NC(=O)c1cc(-n2c(=O)cc(C(F)(F)F)n(C)c2=O)c(F)cc1Cl", "note": "[saflufenacil, N′-[2-chloro-4-fluoro-5-(3-methyl-2,6-dioxo-4-(trifluoromethyl)-3,6-dihydro-1(2H)-pyrimidine)benzoyl]-N-isopropyl-N-methylsulfamide, reference compound]", "values": [
      {"measurement": "effective dose distinguishing sensitive plants from plants having an average level of resistance", "setting": "[2]; for Arabidopsis thaliana, saflufenacil herbicide", "result": 25, "unit": "g ai/ha"}
    ]},
    {"compound": "C#CCN1C(=O)COc2cc(F)c(N3C(=O)C4=C(CCCC4)C3=O)cc21", "note": "[flumioxazin, 2-[7-fluoro-3,4-dihydro-3-oxo-4-(2-propynyl)-2H-1,4-benzoxazin-6-yl]-4,5,6,7-tetrahydro-1H-isoindole-1,3(2H)-dione, reference compound]", "values": [
      {"measurement": "effective dose distinguishing sensitive plants from plants having an average level of resistance", "setting": "[3]; for Arabidopsis thaliana, flumioxazin herbicide", "result": 60, "unit": "g ai/ha"}
    ]}
  ]
}
